This note sets out measurements from patent US9598361B1, “Amino substituted acetamide derivative” (KING SAUD UNIVERSITY, priority 2016, dated 2017).

Where only a bound is given, the exact number is not on record here.

Data set [1] relates to acetic acid induced colitis. The data set is described as follows: Anti-ulcerative colitis activity, acetic acid induced colitis. The class given is in vivo, rats. The following applies: for inhibition in vivo at 50 mg/kg: Rattus norvegicus, po, 120 h, protection of control colitis, read-out: % Protection; for Wt/l: colon wet weight/length ratio. How it is done: (§1) The biological activities of the investigational compounds (CP1-8) were investigated as follows. Swiss albino mice of both sexes (26-30 g) and male Wistar rats (180-200 g) were purchased from the animal house of King Saud University, KSA. Animals were housed in standard polypropylene cages with wire mesh top and maintained under standard conditions (temperature 23±1.0° C., humidity 55±10%, 12 h light/12 h dark cycle). They were fed a standard pellet diet with water ad libitum and were allowed to adapt to the laboratory environment for one week before experimentation.
Groups of animals each of 6 rats were used for assessing the anti-ulcerative colitis activity. The first group received dexamesathone at dose 0.1 mg/kg orally to serve as standard; two other groups received water orally and served as normal control and control colitis. Other groups received the tested compounds CP 1-7 at a dose 50 mg/kg and tested compound CP 8 at a dose of 100 mg/kg. Ulcerative colitis was induced by slowly infusion of 2 mL (4%, v/v) acetic acid in saline into the colon through the catheter. Two hours after the induction of colitis, animals received the 1st dose of all medication, then all groups received medication for 5 consecutive days, two hours after the last dose, animals were sacrificed by ether anesthesia, colonic segments (8 cm in length and 3 cm proximal to the anus) were excised, opened and were used for macroscopic scoring (Awaad et al., 2013).
The colonic lesions were assessed as follows. The colon specimens were weighted and wet weight/length ratio was calculated for all the rats. The specimens were examined under a dissecting microscope and the mucosal lesions were quantified by the scoring system (0-5) given by Awaad et al., (2013) after some modifications. The lesion scores were determined as follows: 0=no damage, 1=Local edema and inflammation without ulcers; 2=One ulcer without inflammation; 3=one to two ulcers with inflammation & lesion diameter <1 cm; 4=More than two ulcers with lesion diameter 1-2 cm; 5=Sever ulceration with lesion diameter >2 cm.
The ulcer area was measured using plane glass square. Each cell on the glass square was 1 mm^2 in area and the number of cells was counted and the ulcer area was determined for each colon. The ulcer index was measured by summing the lesion score and the ulcer area for each colon specimen (Awaad et al, 2013).

The subject of data set [2] is liver and kidney functions. Nature of the data set: Effect on liver and kidney functions. The class given is in vivo, Male Wister rats. The following applies: oral 50 mg/kg; for ALT / AST / Blood Urea / Serum Creatinine: Table 6, 6 h after last dose, mean ± SD, n = 10; for ALT / AST: rat serum. How it is done:
The effect on liver and kidney functions using the derivatives were investigated as follows. Male Wister rats were divided into 2 groups, each of 10 rats. The 1st group was left as a control and administered the vehicle orally, while the other group was orally administered the synthesized compounds in a dose of 50 mg/kg (for CP 1-7) or a dose of about 100 mg/kg (for CP 8). After the examination period, 6 h after the last dose blood samples were collected from the orbital plexus of rats. Samples were left to clot at room temperature for 30 min then centrifuged at 1000 rpm for 20 min.
The collected sera were used for determination of the activity of both (AST) aspirate aminotransferase and (ALT) alanine aminotransferase as liver markers. In addition, levels of blood urea, serum creatinine were also estimated as kidney markers (Awaad et al., 2013).

In data set [3] the test system is absolute ethanol-induced ulcer. Nature of the data set: Anti-ulcerogenic activity, absolute ethanol-induced ulcer model. The class given is in vivo, male Wistar rats. As to conditions: Table 2, oral, CP-1-7 50 mg/kg, ranitidine 100 mg/kg; for inhibition in vivo at 50 mg/kg: Rattus norvegicus, po, protection of control ulcer, read-out: % protection; for score: lesion score 0-5, rats. How it is done:
as §1
Evaluation of the anti-ulcerogenic activity was carried out using absolute ethanol-induced ulcer model as described by Bighettia et al. (2005). Eighteen male Wistar rats were divided into 3 groups each of 6 rats. Group 1 received the vehicle and served as control ulcer, Group 2 received ranitidine (100 mg/kg) and served as standard, and Groups 3 received the target compound at a dose of 50 mg/kg for CP1-7 and a dose of 100 mg/kg for CP8.
Rats of all groups were fasted for 24 h then all medications were administered orally. One hour after treatment, the animals received an oral dose of absolute ethanol (1 ml/200 g) and then sacrificed one hour later, by ether inhalation, the stomachs were rapidly removed, opened along their greater curvature and gently rinsed under running tap water.
Number of lesions in the glandular part of the stomach were measured under an illuminated magnifying microscope (10×). Long lesions were counted and their lengths were measured. Petechial lesions were counted, and then each five petechial lesions were taken as 1 mm of ulcer.
The lesion scores in the mucosal lesions were quantified by the scoring system (0-5) 0=no damage, 1=Local edema and inflammation without ulcers; 2=One ulcer without inflammation; 3=one to two ulcers with inflammation & lesion diameter <1 cm; 4=More than two ulcers with lesion diameter 1-2 cm; 5=Sever ulceration with lesion diameter >2 cm (Morris et al., 1989).
In order to calculate the Ulcer Index (mm), the sum of the total length of long ulcers and petechial lesions in each group of rats was divided by its number. The curative ratio was determined according to the formula: […]

Where [4] appears, read: Table 4, CP-1-7 50 mg/kg, dexamethasone 0.1 mg/kg.
Setting [5] is: Table 4, oral 5 days, CP-1-7 50 mg/kg, dexamethasone 0.1 mg/kg.

On to `NS(=O)(=O)c1ccc(NC(=O)CN2CCC(N3CCCCC3)CC2)cc1` [CP-4, 2-[4-(1-Piperidino)piperidinyl]-N-(4-aminosulphonylphenyl)acetamide], for which the melting point lay in the range of 215 to 217 °C. Further, the inhibition in vivo at 50 mg/kg in data set [1] (setting [4]) was determined as 25.3%. In addition, the Wt/l in data set [1] (setting [5]) is 0.84 ± 0.02. The score in data set [1] (Table 4, lesion score 0-5, oral 5 days, CP-1-7 50 mg/kg, dexamethasone 0.1 mg/kg) is 3.00 ± 0.63. For the same compound, in data set [2], the ALT came out at 36.87 ± 1.28 U/l and the AST is recorded as 44.16 ± 1.57 U/l. Moreover, in data set [2] (rats), the “Blood Urea” value turned out to be 47.96 ± 0.84 mg/dL and the “effect on serum creatinine (in words)” value was “slightly elevated”. For the same compound, in data set [3], the inhibition in vivo at 50 mg/kg was 97.7% and the score was determined as 2.00.

The compound `COc1ccc(C2CCN(CC(=O)Nc3ccc(S(N)(=O)=O)cc3)CC2)cc1` [CP-5, 2-[4(4-Methoxyphenyl)piperidinyl]-N-(4-aminosulphonylphenyl)acetamide] had a melting point of 175 to 177 °C. Moreover, in data set [1] (setting [4]), the inhibition in vivo at 50 mg/kg was 22.3%. Moreover, the Wt/l in data set [1] (setting [5]) came out at 0.75 ± 0.02. In data set [2], this compound had an ALT of 36.35 ± 1.26 U/l and an AST of 44.09 ± 1.25 U/l. Moreover, in data set [2] (rats), the “Blood Urea” value came to 55.92 ± 0.55 mg/dL and the “Serum Creatinine” value is 0.86 ± 0.07 mg/dL. Besides, in data set [3], the inhibition in vivo at 50 mg/kg was found to be 83.6% and the score was 2.40.

Compound `Cc1cccc(N2CCN(CC(=O)Nc3ccc(S(N)(=O)=O)cc3)CC2)c1C` [CP-6, 2-[4(2,3-Xylyl)piperazinyl]-N-(4-aminosulphonylphenyl)acetamide] yielded a melting point of 241 to 243 °C. In data set [1] (setting [4]), the inhibition in vivo at 50 mg/kg stood at 30.6%. In addition, the Wt/l in data set [1] (setting [5]) came to 0.71 ± 0.05. Further, in data set [2], the ALT is on record as 36.02 ± 1.58 U/l and the AST was 44.7 ± 1.66 U/l. For the same compound, in data set [2] (rats), the “Blood Urea” value turned out to be 51.00 ± 0.89 mg/dL and the “Serum Creatinine” value was 0.83 ± 0.08 mg/dL. Moreover, in data set [3], the inhibition in vivo at 50 mg/kg is 88.5% and the score was 3.00.

In the case of `Cc1cc(NCC(=O)Nc2ccc(S(N)(=O)=O)cc2)c2ccccc2n1` [CP-7, 2-(2-Methylquinolin-4-ylamino)-N-(4-aminosulphonylphenyl)acetamide], the melting point was above 300 °C. Also, the “effect versus dexamesathone in reducing all colitis parameters (in words)” value in data set [1] (50 mg/kg versus dexamesathone 0.1 mg/kg) is “significantly more effective than dexamesathone”. Also, the inhibition in vivo at 50 mg/kg in data set [1] (setting [4]) was determined as 66.8%. In addition, in data set [1] (setting [5]), the Wt/l worked out at 0.49 ± 0.02. Further, in data set [2], the ALT turned out to be 36.33 ± 1.35 U/l and the AST is 46.16 ± 1.48 U/l. Besides, in data set [2] (rats), the “Blood Urea” value was 53.00 ± 0.14 mg/dL and the “Serum Creatinine” value amounted to 0.85 ± 0.09 mg/dL. In addition, in data set [3], the inhibition in vivo at 50 mg/kg turned out to be 64.1% and the score worked out at 3.60.
